The text below walks through data of paper PMC2963311 (Nature neuroscience, 2008).

Where no end group is shown, it is not given here.

This assay deals with EGL-6. As to the kind of experiment: GIRK current activation in EGL-6-expressing oocytes. Type of assay: cell-based, C. elegans. The following applies: single synthetic peptide; X. laevis oocytes coexpressing EGL-6 and GIRKs; whole-cell currents, two-electrode voltage clamp, −80 mV, high-K+ medium (96 mM KCl); Fig. 4d.
In the case of QPKARSGYIRF-NH2, the “agonist activity when applied individually” value is on record as “could function as agonists when applied individually”.
Take KSAFVRF-NH2: the “agonist activity when applied individually” value is listed as “could function as agonists when applied individually”.
In the case of KSQYIRF-NH2 it was “could function as agonists when applied individually”.
